Assay results as given in patent US20160367578A1, “METHODS AND COMPOSITIONS FOR ERADICATING LEUKEMIC CELLS” (priority 2013, published 2016).
“Also recorded” adds a separate entry of the source. Where two headings read alike, the source gives them in different places.

How the values were obtained:
[1] = system: freshly isolated primary human leukocytes; assay: Neutrophil differentiation (CD66b+/CD14-) by FACS in primary human leukocytes; type: cell-based; conditions: 16 hours
[2] = system: bone marrow primary leukocytes (normal stem cells); assay: Colony formation assay (CFU-C) on bone marrow primary leukocytes; type: cell-based, mouse; conditions: increasing concentrations of carbenoxolone
MLL-AF9 cells = assay: Viability of MLL-AF9 cells exposed to CBX for 16 hours (7AAD FACS); type: cell-based, mouse; design: MLL-AF9 cell death: dose or concentration left out as unconfirmed
Experimental: (§1) Cells were distinguished by Cd45.1/CD45.2 expression and cell viability was determined by % of 7AAD-negative cells, in FACS analysis. (*p<0.01).
(§2) We then asked how blockage of gap junction intercellular communication affects AML cells, without additional treatment. […] In order to exclude the possibility of clone specific effects, we have repeated the experiments with a different MLL-AF9 clone, generated independently, and also included HoxA9/Meis1 AML cells that represent a different type of AML.

human APL cell line HL60 = assay: HL60 viability (flow cytometry) and colony formation after CBX; type: cell-based; conditions: viability 16 hours, colony formation 7 days post exposure
[3] = system: freshly isolated primary non-leukemic normal human leukocytes; assay: Colony formation assay (CFU-C) on normal human leukocytes; type: cell-based
[4] = system: primary bone marrow leukocytes or primary peripheral blood leukocytes; assay: Viability of normal primary leukocytes exposed to CBX, alone or in 1:1 mixtures (7AAD FACS); type: cell-based, mouse; design: sensitivity of wild type primary leukocytes from BM or PB: dose or concentration left out as unconfirmed; conditions: for effect on normal counterparts in 1:1 mixtures with different AML cells: MLL-AF9 clone A/B or HoxA9/Meis1 mixtures
Experimental: Cells were distinguished by Cd45.1/CD45.2 expression and cell viability was determined by % of 7AAD-negative cells, in FACS analysis.
as §2

MLL-AF9 leukemia = system: MLL-AF9 leukemia; design: autopsy finding: dose or concentration left out as unconfirmed
[5] = system: murine AML cells (MLL-AF9 clone A, MLL-AF9 clone B, HoxA9/Meis1 cells); assay: Viability of murine AML cells in 1:1 mixtures with normal leukocytes exposed to CBX for 16 hours; type: cell-based, mouse
Experimental: as §1
Cells were distinguished by CD45.1/CD45.2 expression and cell viability was determined by % of 7AAD-negative cells, in FACS analysis (*p<0.01).
as §2

human AML cell line U937 = assay: Neutrophil differentiation (CD66b+/CD14-) by FACS in U937; type: cell-based; conditions: U937, 16 hours
[6] = CBX at greater than or equal to 100 μM, 16 hours
[7] = 75 mg/kg CBX in combination with chemotherapy

SMILES: CC1(C)[C@@H](OC(=O)CCC(=O)O)CC[C@]2(C)[C@H]3C(=O)C=C4[C@@H]5C[C@@](C)(C(=O)O)CC[C@]5(C)CC[C@@]4(C)[C@]3(C)CC[C@@H]12 [CBX, Carbenoxolone]
- neutrophil differentiation (CD66b+/CD14−) [1]: does not induce neutrophil differentiation
- effect on normal stem cells (CFU-C) [2]: inducing proliferation of normal stem cells
- cells eradicated (MLL-AF9 cells; 1001 μM CBX for 16 hours, CBX alone): ~20%
- eradication of MLL-AF9 leukemia (MLL-AF9 cells; [6]): eradication of MLL-AF9 leukemia
- MLL-AF9 cell death (MLL-AF9 cells; CBX, 16 hours): ~70%
- eradication of MLL-AF9 cells in 1:1 mixture with normal BM leukocytes (MLL-AF9 cells; increasing CBX up to 400 μM, 16 hours): selectively eradicates
- sensitivity of HL60 (human APL cell line HL60): sensitive
- effect on normal progenitors (CFU-C) ([3]; CBX 100 μM): induces proliferation of normal progenitors
- effect on normal human stem and progenitor cells (CFU-C) ([3]; increasing concentrations): inducing proliferation of normal human stem and progenitor cells
- cytotoxic effects on normal cells [4]: no cytotoxic effects
- effect on normal BM leukocytes in 1:1 mixture with MLL-AF9 ([4]; CBX as high as 400 μM, 16 hours): without affecting the normal cells
- eradication of normal blood cells [4, 6]: not the eradication of normal blood cells
- sensitivity of wild type primary leukocytes from BM or PB ([4]; CBX even at high concentration, 16 hours): not sensitive
- effect on normal counterparts in 1:1 mixtures with different AML cells ([4]; 16 hours): without affecting normal cells; also recorded: without affecting non-leukemic normal counterparts
- effect on normal counterparts in 1:1 mixtures with different AML cells ([4]; 16 hours, listed as carbenoxolone): without affecting non-leukemic normal counterparts
- CBX-treated mice survived (MLL-AF9 leukemia; 25 mg/kg CBX alone or in combination with induction chemotherapy): 40%-60%
- survival vs PBS and chemotherapy controls (MLL-AF9 leukemia; 25 mg/kg CBX in combination with induction chemotherapy): no statistically significant difference in survival
- CBX-treated mice survived (MLL-AF9 leukemia; 50 mg/kg CBX alone): 20%
- survival (MLL-AF9 leukemia; 50 mg/kg CBX alone): early mortality with no statistically significant difference
- survival vs PBS and chemotherapy controls (MLL-AF9 leukemia; 50 mg/kg CBX in combination with chemotherapy): significant increased survival
- survival vs PBS controls (MLL-AF9 leukemia; 75 mg/kg CBX alone): significant increased survival
- CBX-treated mice survived (MLL-AF9 leukemia; [7]): 20%
- survival (MLL-AF9 leukemia; [7]): early mortality with no statistically significant difference
- adverse effect of prolonged administration (MLL-AF9 leukemia; SC, daily, 14 days): lethal pseudo-hyperadlosteronism with no sign of leukemia
- autopsy, signs of leukemia (MLL-AF9 leukemia; chemotherapy plus 50 mg/kg CBX): no signs of leukemia
- autopsy finding (MLL-AF9 leukemia; mouse that died at day 28 after CBX treatment): gastric edema
- adverse effect of chronic systemic exposure (MLL-AF9 leukemia; mouse, in vivo): acute lethal pseudo-hyperaldosteronism in some case
- early mortality (MLL-AF9 leukemia; mouse, in vivo): early mortality due to acute lethal pseudo-hyperadlosteronism
- cause of early mortality (MLL-AF9 leukemia; mouse, in vivo, sc): most likely induced by acute pseudo-hyperaldosteronism, and not by leukemia
- survival (MLL-AF9 leukemia; mouse, in vivo, sc, 50 mg/kg): prolonged survival
- survival (MLL-AF9 leukemia; mouse, in vivo, sc, 75 mg/kg): prolonged survival
- eradication of different murine AML cells [5]: selectively eradicates
- eradication of different murine AML cells ([5]; listed as Carbenoxolone): selective eradication
- eradication of different murine AML cells ([5]; listed as carbenoxolone): selectively eradicates
- neutrophil differentiation (CD66b+/CD14−) (human AML cell line U937): induces rapid (within 16 hours) neutrophil differentiation
